# Patent publication US9732044B2, “N-(pyrid-4-yl)amides and N-(pyrimidin-4-yl)amides and their pharmaceutical and cosmetic use” (GALDERMA RESEARCH & DEVELOPMENT, priority 2011, dated 2017)
# Like-named read-outs stand apart in the source and are kept apart here.
# Columns and labels:
# androgen receptor (AR) = androgen receptor (AR) (Homo sapiens (Human), UniProt P10275); assay: Androgen receptor transactivation test in PALM cell line (cross curves against methyl trienolone); type: cell-based
# Description: This AR inhibiting activity was measured in a transactivation test by the dissociation constants KdR (rest), KdA (active), and Kdapp (apparent).
# A compound may be said to be an AR inhibitor if it has a dissociation constant, Kdapp, of less than or equal to 1 μM, and a KdR/KdA ratio of less than or equal to 10 in a transactivation test.
# The transactivation test is carried out in the cell line PALM (PC3 androgen receptor Luciferase MMTV), which is a stable transfectant containing the plasmids PMMTV-neo-Luc (reporter gene) and pSG5puro-AR.
# In this study, the affinity of each test compound for the 2 states of the receptor (KdR and KdA) is determined together with the apparent Kd (KdApp). This constant depends upon the 2 Kd's (KdR and KdA), but also depends on the initial equilibrium of the receptor between the active state and rest state (L0) and on its expression rate. It is determined by the following formula: 1/KdApp=(L0/(1+L0))×(1/KdR)+(1/(1+L0))×(1/KdA)
# In order to determine these constants, “cross curves” of the test compound against a reference agonist, methyl trienolone, are carried out on a 96-well plate. The test compound is used in 10 concentrations and the reference agonist in 7 concentrations.
# [1] = tested on: sebaceous gland of the ear of a Syrian hamster; assay: In vivo animal model with reduction in the size of the sebaceous glands (Syrian hamster ear); settings: 1 g %/mL solution, topical on ear, daily for 24 days, compared to control (absolute ethanol)
# Source text: The model of the sebaceous gland of the ear of a Syrian hamster described by Plewig and Luderschmidt in J. Inv. Derm., (1977), pp. 171-176 is a classical tool for the in vivo study of the function of the sebaceous gland. In fact, the inner faces of the ear lobes of the hamster contain a high number of sebaceous glands described as being similar to those of human sebaceous follicles in terms of certain characteristics, including their morphology and response to androgens and anti-androgens. In fact the growth and lipogenesis of the sebaceous glands on the inner face of the ear of Syrian hamsters depend on the androgens. The anti-androgenic activity of test compounds can be easily evaluated by measuring the size of the sebaceous glands. Moreover, this model has been selected to evaluate the efficacy of the antagonists of the receptor to the androgens on the sebaceous gland.
# Test compounds were evaluated according to the following protocol: male hamsters aged weeks were treated daily for 24 days on the inner face of the right ear with 30 μL of a solution of the test compound to be evaluated in absolute ethanol. For each test compound, groups were treated with solutions at a range of concentrations (e.g., from 0.01 g %/mL to 3 g %/mL), as well as absolute ethanol used as a control. (A concentration of 3 g %/mL means a concentration of 0.03 g/mL.)
# At the end of the study, samples were taken from the treated ears. The skin of the inner face of the ear was separated from the cartilage. Under a binocular magnifying glass, two zones of 4 mm^2 were numbered. The size of the sebaceous glands was measured on the numerical images by manually trimming the glands by means of image analysis software (TINA.20). For each image some twenty glands were measured. The average area of the sebaceous glands was calculated for each treatment group.
# A Student t-test for independent groups comparing each dose with vehicle was carried out to compare the average size of the sebaceous glands as a function of the doses applied. When the evolution of the effect is represented graphically as a function of the administered dose of test compound, the curve obtained is sigmoid in shape. In the median part, this sigmoid may be likened to a straight line. The dose corresponding to 50% of the maximum effect corresponds graphically to the point located in the centre of the linear section defined as “effective dose 50”. This DE50 characterises the potency of the test compound.
# [2] = apparent dissociation constant, PALM cells (PC3 androgen receptor Luciferase MMTV), read-out: Kdapp
# [3] = threshold lists, PALM cells, read-out: Kdapp
# [4] = Kdapp, threshold lists, PALM cells
# Chain of androgen receptor (AR) (P10275 whole entry): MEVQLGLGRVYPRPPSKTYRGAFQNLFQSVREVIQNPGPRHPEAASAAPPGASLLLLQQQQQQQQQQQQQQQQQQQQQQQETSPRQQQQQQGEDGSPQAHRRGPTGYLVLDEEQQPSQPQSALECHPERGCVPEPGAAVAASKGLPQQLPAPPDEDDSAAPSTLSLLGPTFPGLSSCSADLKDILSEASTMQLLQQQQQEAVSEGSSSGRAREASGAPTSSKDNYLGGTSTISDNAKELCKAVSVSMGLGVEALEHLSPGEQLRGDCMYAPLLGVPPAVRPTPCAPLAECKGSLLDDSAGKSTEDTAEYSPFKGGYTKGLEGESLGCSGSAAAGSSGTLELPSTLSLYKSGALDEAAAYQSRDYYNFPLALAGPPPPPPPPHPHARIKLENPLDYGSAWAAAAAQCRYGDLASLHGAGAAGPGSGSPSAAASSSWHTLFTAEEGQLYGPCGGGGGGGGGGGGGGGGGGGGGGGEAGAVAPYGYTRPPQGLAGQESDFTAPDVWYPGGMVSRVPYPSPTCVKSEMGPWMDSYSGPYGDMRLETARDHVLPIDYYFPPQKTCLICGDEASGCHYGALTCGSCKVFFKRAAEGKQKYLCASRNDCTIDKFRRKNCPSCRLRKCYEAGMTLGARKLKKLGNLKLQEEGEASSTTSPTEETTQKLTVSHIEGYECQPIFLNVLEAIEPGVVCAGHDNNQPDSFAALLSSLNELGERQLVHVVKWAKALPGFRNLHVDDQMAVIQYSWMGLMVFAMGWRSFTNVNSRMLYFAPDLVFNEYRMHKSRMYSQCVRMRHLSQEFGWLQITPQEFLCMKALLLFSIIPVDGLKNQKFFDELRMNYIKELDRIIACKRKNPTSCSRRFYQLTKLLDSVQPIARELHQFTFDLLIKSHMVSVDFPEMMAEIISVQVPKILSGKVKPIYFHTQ
Structure (SMILES),Kd (androgen receptor (AR); [2]),Kd (androgen receptor (AR); [3]),Reduction of sebaceous glands (following treatment at 1 g %/mL) [1],Kd (androgen receptor (AR); [4])
"COc1cc(NC(=O)C(C)(O)CC(C)C)cc(Br)n1 (single isomer, unassigned) [Compound 71A]",,≤ 30 nM,,
"COc1cc(NC(=O)C(C)(O)CC(C)C)cc(Br)n1 (single isomer, unassigned) [Compound 71B]",,≤ 30 nM,56%,
"CCCCC(C)(O)C(=O)Nc1ccnc(Br)c1 (single isomer, unassigned) [Compound 80A, 2-Hydroxy-2-methyl-hexanoic acid (2-bromo-pyridin-4-yl)-amide]",,≤ 100 nM,51%,
"CCCC(C)(O)C(=O)Nc1ccnc(Br)c1 (centres unmarked) [Compound 1, 2-Hydroxy-2-methyl-pentanoic acid (2-bromo-pyridin-4-yl)-amide]",75 nM,≤ 100 nM,53%,
"CCCCC(C)(O)C(=O)Nc1cc(Br)nc(OC)c1 (centres unmarked) [Compound 8, 2-Hydroxy-2-methyl-hexanoic acid (2-bromo-6-methoxy-pyridin-4-yl)-amide]",30 nM,≤ 30 nM,56%,
"CCC(O)(C(=O)Nc1cc(Br)nc(OC)c1)C1CCCC1 (centres unmarked) [Compound 9, N-(2-Bromo-6-methoxy-pyridin-4-yl)-2-cyclopentyl-2-hydroxy-butyramide]",,≤ 30 nM,,
"CCC(O)(C(=O)Nc1cc(Br)nc(OC)c1)C(C)C (centres unmarked) [Compound 13, N-(2-Bromo-6-methoxy-pyridin-4-yl)-2-ethyl-2-hydroxy-3-methyl-butyramide]",,≤ 30 nM,,
"COc1ccc(CCC(C)(O)C(=O)Nc2ccnc(Br)c2)cc1 (centres unmarked) [Compound 24, N-(2-Bromo-pyridin-4-yl)-2-hydroxy-4-(4-methoxy-phenyl)-2-methyl-butyramide]",300 nM,≤ 300 nM,,
"COc1cc(NC(=O)C(C)(O)C(C)C)cc(Br)n1 (centres unmarked) [Compound 25, N-(2-Bromo-6-methoxy-pyridin-4-yl)-2-hydroxy-2,3-dimethyl-butyramide]",,≤ 30 nM,,
"CC(O)(C(=O)Nc1ccnc(Br)c1)c1ccccc1 (centres unmarked) [Compound 32, N-(2-Bromo-pyridin-4-yl)-2-hydroxy-2-phenyl-propionamide]",100 nM,≤ 100 nM,,
"COc1cc(NC(=O)C(C)(C)O)cc(Br)n1 [Compound 38, N-(2-Bromo-6-methoxy-pyridin-4-yl)-2-hydroxy-2-methyl-propionamide]",,≤ 300 nM,,
"CC(O)(CCc1ccccc1)C(=O)Nc1ccnc(Br)c1 (centres unmarked) [Compound 43, N-(2-Bromo-pyridin-4-yl)-2-hydroxy-2-methyl-4-phenyl-butyramide]",100 nM,,44%,≤ 100 nM
"CCCC(C)(O)C(=O)Nc1ccnc(C(=O)OC)c1 (centres unmarked) [Compound 59, 4-(2-Hydroxy-2-methyl-pentanoylamino)-pyridine-2-carboxylic acid methyl ester]",6000 nM,≤ 10000 nM,,
"CCCC(C)(O)C(=O)Nc1cc(Br)nc(OC)c1 (centres unmarked) [Compound 60, 2-Hydroxy-2-methyl-pentanoic acid (2-bromo-6-methoxy-pyridin-4-yl)-amide]",,≤ 100 nM,,
"CCCCC(O)(CCCC)C(=O)Nc1cc(Br)nc(OC)c1 [Compound 66, 2-Butyl-2-hydroxy-hexanoic acid (2-bromo-6-methoxy-pyridin-4-yl)-amide]",,≤ 100 nM,,
"COc1cc(NC(=O)C(O)(C(C)C)C(C)C)cc(Br)n1 [Compound 68, N-(2-Bromo-6-methoxy-pyridin-4-yl)-2-hydroxy-2-isopropyl-3-methyl-butyramide]",,,57%,≤ 30 nM
"COc1cc(NC(=O)C(C)(O)C2CCOCC2)cc(Br)n1 (centres unmarked) [Compound 69, N-(2-Bromo-6-methoxy-pyridin-4-yl)-2-hydroxy-2-(tetrahydro-pyran-4-yl)-propionamide]",,≤ 1000 nM,,
"CCCCC(C)(O)C(=O)Nc1cc(Br)nc(OC)c1 (centres unmarked) [Compound 72A, 2-Hydroxy-2-methyl-hexanoic acid (2-bromo-6-methoxy-pyridin-4-yl)-amide]",,≤ 30 nM,48%,
"CCC(O)(C(=O)Nc1cc(Br)nc(OC)c1)C1CCCC1 (centres unmarked) [Compound 73B, N-(2-Bromo-6-methoxy-pyridin-4-yl)-2-cyclopentyl-2-hydroxy-butyramide]",,≤ 100 nM,,
"CCCC(O)(CC)C(=O)Nc1cc(Br)nc(OC)c1 (centres unmarked) [Compound 75A, 2-Ethyl-2-hydroxy-pentanoic acid (2-bromo-6-methoxy-pyridin-4-yl)-amide]",,≤ 100 nM,,
"CCCC(O)(CC)C(=O)Nc1cc(Br)nc(OC)c1 (centres unmarked) [Compound 75B, 2-Ethyl-2-hydroxy-pentanoic acid (2-bromo-6-methoxy-pyridin-4-yl)-amide]",,≤ 100 nM,,
"CCC(O)(C(=O)Nc1ccnc(Br)c1)C1CCCC1 (centres unmarked) [Compound 77B, N-(2-Bromo-pyridin-4-yl)-2-cyclopentyl-2-hydroxy-butyramide]",,≤ 30 nM,,
"CCCC(C)(O)C(=O)Nc1cc(Br)nc(OC)c1 (centres unmarked) [Compound 78A, 2-Hydroxy-2-methyl-pentanoic acid (2-bromo-6-methoxy-pyridin-4-yl)-amide]",,≤ 100 nM,,
"CCCC(O)(C(=O)Nc1cc(Br)nc(OC)c1)C(C)C (centres unmarked) [Compound 79B, 2-Hydroxy-2-isopropyl-pentanoic acid (2-bromo-6-methoxy-pyridin-4-yl)-amide]",,≤ 30 nM,,

# Now from value to compound, other results behind:
Kd (androgen receptor (AR); [2]),Kd (androgen receptor (AR); [3]),Structure (SMILES),Reduction of sebaceous glands (following treatment at 1 g %/mL) [1],Kd (androgen receptor (AR); [4])
20 nM,≤ 30 nM,"COc1cc(NC(=O)C(C)(O)CC(C)C)cc(Br)n1 (racemic) [Compound 41, 2-Hydroxy-2,4-dimethyl-pentanoic acid (2-bromo-6-methoxy-pyridin-4-yl)-amide]",61%,
,≤ 300 nM,"CCCCC(C)(O)C(=O)Nc1ccnc(Br)c1 (single isomer, unassigned) [Compound 80B, 2-Hydroxy-2-methyl-hexanoic acid (2-bromo-pyridin-4-yl)-amide]",,
,≤ 30 nM,"CCCC(O)(CC)C(=O)Nc1cc(Br)nc(OC)c1 (centres unmarked) [Compound 19, 2-Ethyl-2-hydroxy-pentanoic acid (2-bromo-6-methoxy-pyridin-4-yl)-amide]",61%,
15 nM,≤ 30 nM,"CCCCC(O)(CCCC)C(=O)Nc1ccnc(Br)c1 [Compound 23, 2-Butyl-2-hydroxy-hexanoic acid (2-bromo-pyridin-4-yl)-amide]",51%,
,≤ 300 nM,"COc1cc(NC(=O)C(C)(O)c2ccc(F)cc2)ccn1 (centres unmarked) [Compound 27, 2-(4-Fluoro-phenyl)-2-hydroxy-N-(2-methoxy-pyridin-4-yl)-propionamide]",,
,≤ 30 nM,"CCC(O)(C(=O)Nc1ccnc(Br)c1)C1CCCC1 (centres unmarked) [Compound 51, N-(2-Bromo-pyridin-4-yl)-2-cyclopentyl-2-hydroxy-butyramide]",,
,≤ 30 nM,"CCCC(O)(C(=O)Nc1cc(Br)nc(OC)c1)C(C)C (centres unmarked) [Compound 64, 2-Hydroxy-2-isopropyl-pentanoic acid (2-bromo-6-methoxy-pyridin-4-yl)-amide]",,
,≤ 30 nM,"CCC(O)(C(=O)Nc1cc(Br)nc(OC)c1)C1CCCC1 (centres unmarked) [Compound 73A, N-(2-Bromo-6-methoxy-pyridin-4-yl)-2-cyclopentyl-2-hydroxy-butyramide]",,
,≤ 30 nM,"CCC(O)(C(=O)Nc1cc(Br)nc(OC)c1)C(C)C (centres unmarked) [Compound 74A, N-(2-Bromo-6-methoxy-pyridin-4-yl)-2-ethyl-2-hydroxy-3-methyl-butyramide]",,
,≤ 100 nM,"COc1cc(NC(=O)C(C)(O)C(C)C)cc(Br)n1 (centres unmarked) [Compound 76B, N-(2-Bromo-6-methoxy-pyridin-4-yl)-2-hydroxy-2,3-dimethyl-butyramide]",,
,≤ 30 nM,"CCC(O)(C(=O)Nc1ccnc(Br)c1)C1CCCC1 (centres unmarked) [Compound 77A, N-(2-Bromo-pyridin-4-yl)-2-cyclopentyl-2-hydroxy-butyramide]",,
